The values that follow come from patent US20260217683A1, “PYRIDAZINONE HETEROCYCLIC COMPOUND MYOSIN II INHIBITOR AND USE THEREOF” (Xizang Haisco Pharmaceutical Co., Ltd., priority 2023, published 2026).

What is called inhibition is the change of the read-out against control, counted positive when it falls. The IC50 is the midpoint of a concentration-inhibition curve.

One data set deals with T1, smooth muscle myosin S1 (Gallus gallus, UniProt P10587).
T1 construct: purchased Cytoskeleton #CS-MYS05
T1 sequence (P10587 84-789 limits assumed): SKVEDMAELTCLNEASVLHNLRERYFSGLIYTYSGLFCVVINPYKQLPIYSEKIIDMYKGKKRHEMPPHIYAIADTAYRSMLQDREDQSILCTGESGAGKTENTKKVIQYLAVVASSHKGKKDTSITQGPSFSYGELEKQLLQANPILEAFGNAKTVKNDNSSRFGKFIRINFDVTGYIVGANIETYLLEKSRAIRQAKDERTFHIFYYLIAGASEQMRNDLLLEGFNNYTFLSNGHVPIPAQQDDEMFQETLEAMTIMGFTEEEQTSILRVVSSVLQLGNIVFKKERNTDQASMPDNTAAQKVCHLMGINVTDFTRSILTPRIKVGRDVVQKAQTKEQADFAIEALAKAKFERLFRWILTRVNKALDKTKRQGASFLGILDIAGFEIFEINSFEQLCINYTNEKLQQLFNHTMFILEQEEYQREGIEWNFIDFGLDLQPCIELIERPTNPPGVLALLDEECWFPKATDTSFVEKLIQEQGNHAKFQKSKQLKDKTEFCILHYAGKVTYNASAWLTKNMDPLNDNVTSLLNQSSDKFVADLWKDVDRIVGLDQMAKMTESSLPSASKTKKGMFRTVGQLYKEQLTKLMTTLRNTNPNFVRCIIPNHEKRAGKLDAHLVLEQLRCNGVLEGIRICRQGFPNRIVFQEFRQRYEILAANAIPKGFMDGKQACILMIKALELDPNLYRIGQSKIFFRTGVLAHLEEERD
T1 sequence (P02607 whole entry partner): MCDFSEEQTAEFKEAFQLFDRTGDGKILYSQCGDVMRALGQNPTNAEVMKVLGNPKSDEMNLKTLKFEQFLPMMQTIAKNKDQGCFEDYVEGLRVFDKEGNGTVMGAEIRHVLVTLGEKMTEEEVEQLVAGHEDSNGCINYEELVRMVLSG
The experiment in a line: Inhibition of hydrolysis of ATP by smooth muscle myosin S1 fragments. In kind it is biochemical. The procedure:
The purpose of this test was to evaluate the ability of compounds to inhibit the hydrolysis of ATP by smooth muscle myosin Si fragments. The determination method was as follows: • 1. Solution formulation • F-actin polymer: Cardiac Actin powder (#CS-AD99, Cytoskeleton) was dissolved in a buffer (5 mM Pipes-KOH solution, PH=7.0, containing 100 μM ATP and 500 μM DTT) to form a 2 mg/mL solution and the solution was left at room temperature for 30 min; then 2 mM MgCl2 and 2 mM EGTA were added and the obtained system was left at room temperature for 40 min; • Smooth muscle SI fragment (#CS-MYS05, Cytoskeleton) was diluted with a pre-cooled PM12 buffer containing 1 mM DTT (12 mM Pipes-KOH solution, PH=7.0, containing 2 mM MgCl2) to form a 0.7 mg/mL solution; • ATP (#BSA04-001, Cytoskeleton) was diluted to 5 mM working solution with 15 mM Tris-HCL (PH=7.5); • 2. […] Experimental steps: • adding 10 μL of compound working solution+6 μL of F-actin polymer+4 μL of Smooth muscle Si fragment solution to the compound wells; • adding 10 μL of PM12 buffer containing DMSO+6 μL of F-actin polymer+4 μL of Smooth muscle S1 fragment solution to positive control wells; • adding 10 μL of PM12 buffer containing DMSO+6 μL of F-actin polymer+4 μL of PM12 buffer to negative control wells; • adding […] of 5 mM ATP working solution to all test wells to start the reaction, gently mixing and incubating at 37° C. for 20 min; • after the reaction was completed, taking 6 μLL of reaction liquid, adding 24 μL of PM12 buffer for 5-fold dilution, then detecting the content of the product Pi with a phosphate kit (#BK054, Cytoskeleton); • adding a standard according to the instructions, adding 70 μL of CytoPhos Reagent (#BK054, Cytoskeleton) to all wells and incubating at room temperature for 10 min before detection. • 4. Detection: • the OD value of each well was detected at 650 nm. The standard curve was fitted according to Pi standard concentration and OD value, and the Pi concentration of each test well was obtained. Inhibition (%)=(positive control well−test well)/positive control well*100%.

Another data set addresses T2, cardiac myosin SII (Bos taurus, UniProt Q9BE39).
T2 construct: purchased Cytoskeleton #MYO3-A
The experiment in a line: Inhibition of hydrolysis of ATP by cardiac myosin SII. In kind it is biochemical. The note with it: 100 μM compound. The procedure:
The purpose of this test was to evaluate the ability of compounds to inhibit the hydrolysis of ATP by cardiac myosin SII. The determination method was as follows: • 1. Solution formulation: • Preformed F-actin filaments (#AKF99-B, Cytoskeleton) were diluted to 1 mg/mL with Reaction buffer (15 mM Tris-HCL. PH7.5+10 mM KCl+0.1 mM EGTA+2 mM MgCl2); • Cardiac Muscle myosin (#MYO3-A, Cytoskeleton) was diluted to 1 mg/mL with Resuspension buffer (15 mM Tris-HCL, PH7.5+0.2M KCl+1 mM MgCl2); • ATP (#BSA04-001, Cytoskeleton) was diluted to 3 mM working solution with 15 mM Tris-HCL (PH=7.5); • 2. Formulation of working solution of compounds: the final compound concentration was 100 μM • 3. Experimental steps: • adding 10 μL of compound working solution+12 μL of Preformed F-actin filaments+3 μL of Cardiac Muscle myosin to the compound wells; • adding 10 μL of reaction buffer containing DMSO+12 μL Preformed F-actin filaments +3 μL Cardiac Muscle myosin to positive control wells; • adding 10 μL of reaction buffer containing DMSO+12 μL Preformed F-actin filaments +3 μL Resuspension buffer to negative control wells; • adding 5 μL of 3 mM ATP working solution to all test wells to start the reaction, gently mixing and incubating at 37° C. for 2 h; • after the reaction was completed, taking 6 μL of reaction liquid, adding 24 μL of reaction buffer for 5-fold dilution, then detecting the content of the product Pi with a phosphate kit (#BK054, Cytoskeleton); • adding a sample to Pi standard wells according to the instructions; • adding 70 μL of CytoPhos Reagent (#BK054, Cytoskeleton) to each well and incubating at room temperature for 10 min before detection. • 4. Detection: • the OD value of each well was detected at 650 nm. The standard curve was fitted according to Pi standard concentration and OD value, and the Pi concentration of each test well was obtained. Inhibition (%)=(positive control well−test well)/positive control well*100%.

Data set [1] concerns rabbit skeletal muscle myosin. The experiment in a line: Inhibition of hydrolysis of ATP by rabbit skeletal muscle myosin. In kind it is biochemical. The procedure: The purpose of this test was to evaluate the ability of compounds to inhibit the hydrolysis of ATP by rabbit skeletal muscle myosin. The determination method was as follows:
• Preformed F-actin filaments (#AKF99-B, Cytoskeleton) were diluted to 1 mg/mL with Reaction buffer (25 mM Tris-HCL, pH 7.5+35 mM KCl+0.1 mM EGTA+1 mM MgCl2); • Rabbit myosin (#MYO2-A, Cytoskeleton) was diluted to 0.1 mg/mL with Resuspension buffer (15 mM Tris-HCL, PH7.5+0.2 M KCl+1 mM MgCl2); • ATP (#BSA04-001, Cytoskeleton) was diluted to 3 mM working solution with 15 mM Tris-HCL (PH=7.5);
• adding 13 μL reaction buffer+12 μL F-actin to actin control wells; • adding 10 μL reaction buffer+12 μL F-actin+3 μL myosin II to positive control wells; • adding 10 μL of compound working solution+12 μL of F-actin+3 μL of myosin II to the compound wells; • adding 5 μL of ATP working solution to all test wells to start the reaction, and simultaneously adding a sample to the Pi standard wells according to the instruction (#BK054, Cytoskeleton); • gently mixing and accurately incubating at 37° C. for 60 min; • adding 70 μL of CytoPhos Reagent (#BK054, Cytoskeleton) to each well and incubating for 10 min to stop the reaction.
• the OD value of each well was detected at 650 nm using the endpoint method. The standard curve was fitted according to Pi concentration and OD value, and the Pi concentration of each test well was obtained. Inhibition (%)=(Pi positive control well-Pi test well)/Pi positive control well*100%. The Inhibition %-[…] curve was fitted with Graphpad Prism 8 software, and IC50 was calculated.

The nature of data set [2]: Pharmacokinetic experiment in mouse muscle tissue (tibialis anterior / plasma). In kind it is in vivo, C57 mice. The note with it: male, C57, tibialis anterior muscle / plasma, oral, intragastric 10 mg/kg, read-out: Ratio = Tibialis anterior Conc./Plasma Conc. The procedure: 1. Experimental animals: Male C57 mice, 22-25 g, 6 mice/compound. Purchased from Chengdu Ddossy Experimental Animals Co., Ltd.
2. Experimental design: On the day of the experiment, C57 mice were randomly grouped according to their body weight. The animals were fasted with water available for 12 to 14 h one day before the administration and were fed 4 h after the administration. Administration was performed as per Table 10.1.

[3] abbreviates: inhibition of hydrolysis of ATP, class symbols, read-out: Rabbit skeletal muscle myosin (IC50).
[4] abbreviates: read-out: IC50 for inhibition of hydrolysis of ATP by rabbit skeletal muscle myosin.

Read-outs that look alike come from different tables or passages of the source.

T2 sequence (Q9BE39 whole entry): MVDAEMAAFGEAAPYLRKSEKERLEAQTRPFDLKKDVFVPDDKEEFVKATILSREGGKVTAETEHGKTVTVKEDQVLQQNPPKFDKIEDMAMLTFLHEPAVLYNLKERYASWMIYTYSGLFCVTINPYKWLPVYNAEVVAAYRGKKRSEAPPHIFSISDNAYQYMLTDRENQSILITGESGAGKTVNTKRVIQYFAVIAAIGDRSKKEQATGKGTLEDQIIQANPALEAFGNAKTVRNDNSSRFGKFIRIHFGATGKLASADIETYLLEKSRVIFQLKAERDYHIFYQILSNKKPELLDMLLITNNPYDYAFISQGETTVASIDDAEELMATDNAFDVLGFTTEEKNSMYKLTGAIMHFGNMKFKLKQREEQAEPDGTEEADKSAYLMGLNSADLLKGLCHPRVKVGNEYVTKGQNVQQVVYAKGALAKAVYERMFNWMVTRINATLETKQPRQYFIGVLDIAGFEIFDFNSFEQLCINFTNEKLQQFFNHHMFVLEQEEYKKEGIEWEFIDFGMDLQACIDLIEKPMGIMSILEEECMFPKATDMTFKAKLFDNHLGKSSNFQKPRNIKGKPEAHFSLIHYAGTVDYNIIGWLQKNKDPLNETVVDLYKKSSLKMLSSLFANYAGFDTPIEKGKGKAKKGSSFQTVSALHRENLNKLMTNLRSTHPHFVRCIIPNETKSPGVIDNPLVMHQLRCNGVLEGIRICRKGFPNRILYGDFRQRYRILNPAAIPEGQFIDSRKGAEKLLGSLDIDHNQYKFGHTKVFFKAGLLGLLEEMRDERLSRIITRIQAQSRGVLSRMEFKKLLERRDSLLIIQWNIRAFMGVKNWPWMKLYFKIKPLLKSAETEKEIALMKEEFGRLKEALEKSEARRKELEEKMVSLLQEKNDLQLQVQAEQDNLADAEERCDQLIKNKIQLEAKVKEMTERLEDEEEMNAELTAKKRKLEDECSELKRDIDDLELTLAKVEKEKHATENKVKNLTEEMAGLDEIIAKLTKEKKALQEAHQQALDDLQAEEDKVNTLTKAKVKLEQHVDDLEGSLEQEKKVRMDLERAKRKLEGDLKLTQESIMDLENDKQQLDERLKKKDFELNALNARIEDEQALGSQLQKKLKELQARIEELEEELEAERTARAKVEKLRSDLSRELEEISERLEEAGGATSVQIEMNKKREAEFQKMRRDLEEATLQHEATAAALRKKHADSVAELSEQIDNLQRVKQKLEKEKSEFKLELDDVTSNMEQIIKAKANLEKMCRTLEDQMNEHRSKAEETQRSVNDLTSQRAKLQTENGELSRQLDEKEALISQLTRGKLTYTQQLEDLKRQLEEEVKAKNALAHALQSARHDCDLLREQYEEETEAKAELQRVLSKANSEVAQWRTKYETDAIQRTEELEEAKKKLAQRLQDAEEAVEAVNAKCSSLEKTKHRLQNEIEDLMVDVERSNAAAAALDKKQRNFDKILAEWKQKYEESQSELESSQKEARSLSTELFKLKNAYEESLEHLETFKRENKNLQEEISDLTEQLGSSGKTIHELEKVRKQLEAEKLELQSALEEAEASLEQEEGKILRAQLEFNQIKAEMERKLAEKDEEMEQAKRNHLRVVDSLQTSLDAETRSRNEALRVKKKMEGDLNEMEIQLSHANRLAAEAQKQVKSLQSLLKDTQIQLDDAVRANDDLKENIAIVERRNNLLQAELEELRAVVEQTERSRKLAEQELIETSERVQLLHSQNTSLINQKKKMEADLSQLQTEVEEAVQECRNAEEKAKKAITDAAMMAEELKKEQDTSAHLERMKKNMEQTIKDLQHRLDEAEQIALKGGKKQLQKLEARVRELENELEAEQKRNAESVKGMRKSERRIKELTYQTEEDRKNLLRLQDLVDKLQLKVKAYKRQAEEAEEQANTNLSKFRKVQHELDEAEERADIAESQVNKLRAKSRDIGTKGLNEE
T2 sequence (P85100 whole entry partner): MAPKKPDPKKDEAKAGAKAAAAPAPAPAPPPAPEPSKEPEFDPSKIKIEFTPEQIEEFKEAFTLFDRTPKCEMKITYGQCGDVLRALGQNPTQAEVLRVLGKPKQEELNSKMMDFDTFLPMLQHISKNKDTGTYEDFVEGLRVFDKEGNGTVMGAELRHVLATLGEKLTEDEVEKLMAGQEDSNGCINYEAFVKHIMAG
T2 sequence (Q3SZE5 whole entry partner): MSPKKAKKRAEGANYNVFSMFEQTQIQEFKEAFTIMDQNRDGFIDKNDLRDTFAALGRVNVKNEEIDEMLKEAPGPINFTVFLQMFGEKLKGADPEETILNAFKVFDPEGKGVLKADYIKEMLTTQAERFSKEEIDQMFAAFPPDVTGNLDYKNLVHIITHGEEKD

For `O=c1cc2c(nn1Cc1ccc3c(c1)CC3)-c1cnc(Oc3cncc(F)c3)nc1CC2` [Compound 112], the inhibition at 100 µM against smooth muscle myosin S1 (100 μM compound) was -9%; at cardiac myosin SII, 2%. Moreover, in data set [1] (setting [3]), the concentration for half-maximal inhibition (IC50) was less than 2500 nM.
As for `CC(F)(F)COc1ncc(-c2ccc(=O)n(Cc3ccc4c(c3)C(=O)CC4)n2)cn1` [Compound 139], the Kp at 6 h in data set [2] (6 h) worked out at 63.5. Also, the Kp at 24 h in data set [2] (24 h) came out at 85.5. For the same molecule, the inhibition at 100 µM at smooth muscle myosin S1 (100 μM compound) and on cardiac myosin SII was 6% each time. For the same molecule, the values for the IC50 in data set [1] (setting [3]) and in data set [1] (setting [4]) were less than 2500 nM and 600 nM, respectively.
With `O=c1ccc(-c2cnc(OCC(F)(F)F)nc2)nn1Cc1ccc2c(c1)C1CC1C2` (stereo not drawn) [Compound 140], the “Smooth muscle myosin S1 (Inhibition @ 100 μM)” value on smooth muscle myosin S1 (100 μM compound, 100 µM) was 2%. Also, the “Cardiac myosin SII (Inhibition @ 100 μM)” value at cardiac myosin SII (100 µM) is −6%. For the same molecule, the values for the IC50 in data set [1] (setting [3]) and in data set [1] (setting [4]) were less than 2500 nM and 800 nM, respectively.
Regarding `O=c1ccc(-c2cnc(OCC3(F)CCC3)nc2)nn1Cc1ccc2c(c1)CCC2` [Compound 113], the inhibition at 100 µM on smooth muscle myosin S1 (100 μM compound) was -13%; against cardiac myosin SII it was 0%. In data set [1] (setting [3]), the IC50 is less than 2500 nM.
Regarding `O=c1ccc(-c2cnc(OCC3CC3)nc2)nn1Cc1ccc2c(c1)CCC2` [Compound 80], the inhibition at 50 µM against smooth muscle myosin S1 is 9.3%. Moreover, the inhibition at 100 µM at cardiac myosin SII was -17.8%. Moreover, the IC50 in data set [1] (setting [3]) is less than 2500 nM; in data set [1] (setting [4]) it was 500 nM.
As to `O=c1ccc(-c2cnc(O[C@@H]3CCOC3)nc2)nn1Cc1ccc2c(c1)CCC2` [Compound 126], the inhibition at 100 µM against smooth muscle myosin S1 (100 μM compound) and against cardiac myosin SII was 7% throughout. The IC50 in data set [1] (setting [3]) is less than 2500 nM; in data set [1] (setting [4]), 500 nM.
As for `O=c1ccc(-c2cnc(OC3CC3)nc2)nn1Cc1ccc2c(c1)CCC2` [Compound 84], the inhibition at 50 µM on smooth muscle myosin S1 is 20.2%. The inhibition at 100 µM against cardiac myosin SII is -3.8%. Also, in data set [1] (setting [3]), the IC50 was less than 2500 nM.
